Several values for one entry are separate records, joined by “and”; a condition that tells them apart may be missing. Identical values can stand only once.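 96-well plates; 48 h exposure; 5 concentrations. Endpoints by linear interpolation between flanking doses. Not reached: highest tested concentration assigned. At the GI50, growth is halved. Definition used: TGI = concentration required for complete inhibition of growth.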
Legend:
Experiment in all cases: NCI-60 cell line screen, 48 h
[1] = test system: ACHN renal
[2] = test system: U251 CNS
[3] = test system: MDA-MB-231 breast
[4] = test system: K-562 leukemia
[5] = test system: SK-MEL-28 melanoma
[6] = test system: SK-MEL-5 melanoma
[7] = test system: HCC-2998 colon
[8] = test system: 786-0 renal
[9] = test system: NCI-H23 lung
[10] = test system: LOX IMVI melanoma

SMILES	GI50 [1]	TGI [1]	GI50 [2]	TGI [2]	GI50 [3]	TGI [3]	GI50 [4]	TGI [4]	GI50 [5]	TGI [5]	GI50 [6]	TGI [6]	GI50 [7]	TGI [7]	GI50 [8]	TGI [8]	GI50 [9]	TGI [9]	GI50 [10]	TGI [10]
COc1ccccc1C#Cc1ccccc1C#Cc1ccc(OCCCCCCOc2ccccc2C#Cc2ccccc2C#Cc2ccccc2OC)cc1	> 100 µM	> 100 µM	> 100 µM	> 100 µM	> 100 µM	> 100 µM	> 100 µM	> 100 µM	> 100 µM	> 100 µM	> 100 µM	> 100 µM	> 100 µM	> 100 µM	> 100 µM	> 100 µM	> 100 µM	> 100 µM	> 100 µM	> 100 µM
CC(C)(C)OC(=O)C1C(=O)NC(=O)CC1CC(OCc1ccccc1)C(OCc1ccccc1)C(COCc1ccccc1)OCc1ccccc1 (stereo not given)	60.2 µM and 18.8 µM	> 100 µM	19.6 µM and 5.39 µM	> 100 µM and 56.3 µM	42.8 µM and 6.81 µM	> 100 µM	41.5 µM and 11 µM	> 100 µM	> 100 µM and 18.7 µM	> 100 µM	22 µM and 10.6 µM	> 100 µM and 37.6 µM		> 100 µM	47.6 µM and 12.3 µM	> 100 µM	80.1 µM and 30 µM	> 100 µM	34.7 µM and 8.43 µM	> 100 µM and 21.4 µM
CC(=O)O.CN1[CH-]N(Cc2ccc(C#N)cc2)c2ccccc21.[Ag+]	16.3 µM	30.2 µM	17.2 µM	36.4 µM	18.2 µM	36 µM	18 µM	46 µM	16.7 µM	32.1 µM	12.7 µM	27.6 µM	> 100 µM	> 100 µM	18.4 µM	36.7 µM	20.8 µM	58 µM	15.6 µM	36.2 µM
Cc1cc(OCc2nnc3n2S(=O)(=O)c2ccccc2N3C)ccc1Cl		53 µM		43.6 µM		41.7 µM		> 100 µM		> 100 µM		> 100 µM		> 100 µM		32.7 µM		> 100 µM		> 100 µM
O=C(O)Cc1cccc2c(=O)cc(-c3ccccc3)oc12	813 µM	> 1000 µM	360 µM	> 1000 µM	834 µM	> 1000 µM	148 µM	250 µM and > 844 µM	533 µM	> 1000 µM	407 µM	250 µM and > 876 µM	> 1000 µM	> 1000 µM	> 250 µM	> 1000 µM	581 µM	> 1000 µM	280 µM	250 µM and > 909 µM
C=CCC1(C(=O)OC)CCC/C(=N\O)C1 (stereo not given)		> 10 µM		> 10 µM		> 10 µM		> 10 µM		> 10 µM		> 10 µM		> 10 µM		> 10 µM		> 10 µM		> 10 µM
COc1cnc2c(c1)C(=O)c1c-2n(CCCN2CCCC2)c(=O)c2cc([N+](=O)[O-])ccc12	< 0.01 µM	0.132 µM	0.0113 µM	1.03 µM	0.683 µM	2.65 µM	0.0226 µM	1.9 µM	10.6 µM	27.9 µM	0.0671 µM	0.322 µM	0.157 µM	2.53 µM	0.0266 µM	0.152 µM	0.0272 µM	1.25 µM	< 0.01 µM	0.112 µM
NC(=O)c1cc(N2CC2)c([N+](=O)[O-])cc1[N+](=O)[O-]	> 200 µM	> 200 µM	> 200 µM	> 200 µM		> 200 µM	> 200 µM	> 200 µM		> 200 µM		> 200 µM	> 200 µM	> 200 µM	> 200 µM	> 200 µM	> 200 µM	> 200 µM	> 200 µM	> 200 µM
COc1ccc(Br)cc1NC(=O)Nc1cccc2c1ccn2Cc1ccnc(N)c1	5.51 µM and 4.91 µM	23.2 µM and > 10 µM	4.55 µM and 5.4 µM	15.6 µM and > 10 µM	3.93 µM and 3.01 µM	10.6 µM and > 10 µM	2.41 µM and 2.75 µM	8.38 µM and > 10 µM	11.5 µM and > 10 µM	24.8 µM and > 10 µM	10.2 µM and 5.28 µM	23 µM and > 10 µM	4.41 µM and 4.33 µM	10.1 µM and > 10 µM	8.57 µM and 8.88 µM	27.5 µM and > 10 µM	14.5 µM and > 10 µM	40.7 µM and > 10 µM	1.83 µM and 2.18 µM	3.66 µM and 5.14 µM
Cc1c(Cn2c(C)nc3c(C(=O)O)cc(N4CCOCC4)cc32)cccc1C(F)(F)F	8.73 µM	> 100 µM	49.5 µM	> 100 µM	> 100 µM	> 100 µM	> 77.2 µM	> 100 µM	> 100 µM	> 100 µM	47.1 µM	> 100 µM	72.4 µM	> 100 µM	24.7 µM	> 100 µM	81.5 µM	> 100 µM	60.7 µM	> 100 µM
COc1cc(-c2nn(-c3cccc(NC(=O)Nc4ccc(Cl)c(C(F)(F)F)c4)c3)cc2-c2ccncc2)ccc1Cl	1.1 µM	15.6 µM	0.985 µM	4.18 µM	0.76 µM	2.6 µM	1.21 µM	> 32.5 µM	1.2 µM	5.01 µM	0.818 µM	2.89 µM	1.55 µM	7.3 µM	1.61 µM	8.02 µM	1.13 µM	8.02 µM	1.17 µM	4.61 µM
CCOC(=O)c1[nH]c2cc(Cl)ccc2c1[C@@H](C(=O)NC(C)(C)C)N(CC)C(=O)CCCCC#Cc1cccc2c1CN(C1CCC(=O)NC1=O)C2=O (stereo not given in full)	1.42 µM	13.3 µM	1.84 µM	18.1 µM	< 0.01 µM	1.68 µM	1.52 µM	> 100 µM	2.29 µM	25.5 µM	1.22 µM	2.56 µM	0.225 µM	58 µM	0.249 µM	8.63 µM	3.93 µM	21.2 µM	3.18 µM	> 86.5 µM
O=C1C2CCN(CC2)C1CN1CCOCC1 (stereo not given)		4.18 µM		26.2 µM		40.5 µM		20.3 µM		10.6 µM		31 µM		29.2 µM		3.55 µM		23.9 µM		12.1 µM
CN(C)CCNc1ccc2ncn3c4ccc(O)cc4c(=O)c1c23		4.6 µM		3.97 µM		5.44 µM		29 µM		18 µM		8.52 µM		12.7 µM		13.3 µM		10.9 µM		3.36 µM
Cc1c(CN2CCN(C(=O)[C@H](C)O)CC2)sc2c(N3CCOCC3)nc(-c3cnc(N)nc3)nc12	0.203 µM and 0.145 µM		1.05 µM and 0.328 µM	> 35.8 µM	0.515 µM and 0.384 µM	> 40.6 µM	1.5 µM and 2.39 µM	> 100 µM	0.247 µM and 0.138 µM	5.43 µM and 0.708 µM	0.397 µM and 0.174 µM	2.15 µM and 0.741 µM	0.552 µM and 0.242 µM	9.79 µM and 13.1 µM	0.38 µM and 0.159 µM	4.72 µM and 1.11 µM	0.389 µM and 0.181 µM	> 100 µM	0.153 µM and 0.179 µM	3.05 µM and 2.64 µM
C(=N\Nc1ncc(-c2cc3cc4c(cc3o2)OCO4)s1)/c1ccco1	1.85 µM	11.3 µM	2.9 µM	14.5 µM	1.64 µM	3.83 µM	2.1 µM	> 100 µM	3.42 µM	12.3 µM	2.07 µM	4.6 µM	3.52 µM	12.9 µM	1.97 µM	4.94 µM	1.51 µM	4.22 µM	1.35 µM	2.76 µM
CN(C)c1ccc(/C=N/NC(N)=S)nc1	2.55 µM	> 100 µM	3.99 µM	> 100 µM	5.43 µM	> 100 µM	4.54 µM	> 100 µM	17.9 µM	> 100 µM	2.52 µM	> 100 µM	3.35 µM	> 100 µM	3.33 µM	9.68 µM	2.39 µM	> 100 µM	2.71 µM	> 100 µM
CC(C)(C)OC(=O)NCC(CNC(=O)OC(C)(C)C)C(N)=O		> 100 µM		> 100 µM		> 100 µM		> 100 µM		> 100 µM		> 100 µM		> 100 µM		> 100 µM		> 100 µM		> 100 µM
NC(=O)CC1OC(=O)Cc2cc3c(c(O)c21)C(=O)c1c(O)cccc1C3=O (stereo not given)		> 100 µM		> 100 µM		> 100 µM		> 100 µM		> 100 µM		> 100 µM		> 100 µM		> 100 µM		> 100 µM		> 100 µM
COc1ccc(-c2ncnc3c2ncn3CC#CCCl)cc1	3.62 µM	14.8 µM	1.96 µM	4.85 µM	2.32 µM	8.28 µM	8.06 µM	> 100 µM	9.87 µM	21.8 µM	3.16 µM	12.4 µM	17.6 µM	31.8 µM	1.86 µM	3.93 µM	7.83 µM	21.4 µM	1.77 µM	3.52 µM

Source: PubChem BioAssay (NCI)
